Molecular target: SNAP-hSPR (sepiapterin reductase, SPR) (Homo sapiens, UniProt P35270)
Test: biochemical
Type: binding
Settings: terbium labelled SNAP-hSPR / SSZ labelled SNAP-EGFP; read-out: hTR-FRET IC50

Sequence of SNAP-hSPR (sepiapterin reductase, SPR) (P35270 whole entry): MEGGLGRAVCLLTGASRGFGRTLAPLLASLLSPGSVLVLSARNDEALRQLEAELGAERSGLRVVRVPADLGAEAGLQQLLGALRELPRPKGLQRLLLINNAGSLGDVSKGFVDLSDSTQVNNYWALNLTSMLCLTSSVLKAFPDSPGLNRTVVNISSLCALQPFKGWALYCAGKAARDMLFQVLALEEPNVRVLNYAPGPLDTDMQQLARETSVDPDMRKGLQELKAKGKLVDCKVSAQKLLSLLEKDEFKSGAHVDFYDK

Structure (SMILES) | IC50 [µM]
Cc1nc(-n2ncc(C(=O)N3CCC(C(F)(F)F)CC3)c2C)cc(=O)[nH]1 [Q-0436] | 4.6
Cc1c(C(=O)N2CCN(c3nnc(-c4cccnc4)o3)CC2)cnn1-c1nn2cccc2c(=O)[nH]1 [Q-1150] | 0.001
Cc1cc(=O)[nH]c(-c2c(C)nn(CCC(=O)N3CCCC3)c2C)n1 [Q-0306] | 25
Cc1c(C(=O)N2CC3(C2)CC(F)(F)C3)cnn1-c1nc2c(c(=O)[nH]1)CC(C)(C)C2 [Q-1565] | 5
Cc1c(C(=O)N2CC3CC(C2)N3CC(F)(F)F)cnn1-c1nc2c(ccn2C)c(=O)[nH]1 [Q-1365] | 1
Cc1c(C(=O)N2CCN(S(=O)(=O)c3ccc(Cl)c(Cl)c3)CC2)cnn1-c1nn2cccc2c(=O)[nH]1 [Q-1830] | 0.002
O=c1[nH]c(-c2cc(Br)ccn2)nc2ccsc12 [Q-0540] | 0.3
Cc1c(C(=O)N2CCN(S(=O)(=O)c3cc(Cl)ccc3Cl)CC2)cnn1-c1nn2cccc2c(=O)[nH]1 [Q-1825] | 0.002
Cc1c(C(=O)N2CCC2c2ccnc(F)c2)cnn1-c1nn2cccc2c(=O)[nH]1 (stereo not drawn) [Q-1320] | 0.02
Cc1c(C(=O)N2CCN(S(=O)(=O)c3cccc(C(F)(F)F)c3)CC2)cnn1-c1nn2cccc2c(=O)[nH]1 [Q-1826] | 0.002
Cc1c(C(=O)N2CCN(C3COC3)CC2)cnn1-c1nn2cccc2c(=O)[nH]1 [Q-2041] | 0.003
Cc1c(C(=O)N2CCC(S(C)(=O)=O)CC2)cnn1-c1nn2cccc2c(=O)[nH]1 [Q-1985] | 0.002
Cc1c(C(=O)O)cnn1-c1nc2c(c(=O)[nH]1)CC(C)(C)C2 [Q-1597] | 5
COc1ccccc1NC(=O)c1cnn(-c2nc(C)cc(=O)[nH]2)c1C [Q-0004] | 0.07
Cc1c(C(=O)N2CCN(S(=O)(=O)c3ccc(Cl)c(C(F)(F)F)c3)CC2)cnn1-c1nn2cccc2c(=O)[nH]1 [Q-1840] | 0.003
Cc1c(C(=O)N2CCN(S(=O)(=O)c3ccc(C(F)(F)F)cc3)CC2)cnn1-c1nn2cccc2c(=O)[nH]1 [Q-1834] | 0.001
Cc1c(C(=O)N2CCN(S(=O)(=O)c3ccc(OC(F)(F)F)cc3)CC2)cnn1-c1nn2cccc2c(=O)[nH]1 [Q-1798, 2-(5-methyl-4-(4-(4-(trifluoromethoxy)phenylsulfonyl)piperazine-1-carbonyl)-1H-pyrazol-1-yl)pyrrolo[1,2-f][1,2,4]triazin-4(3H)-one] | 0.002
Cc1c(C(=O)N2CCN(S(=O)(=O)c3cnn(C)c3)CC2)cnn1-c1nn2cccc2c(=O)[nH]1 [Q-1832] | 0.003
Cc1c(C(=O)N2CCN(S(=O)(=O)c3cnc4ccccc4c3)CC2)cnn1-c1nn2cccc2c(=O)[nH]1 [Q-1864] | 0.004
Cc1c(C(=O)N2CCN(CC(F)(F)F)CC2)cnn1-c1nc2c(ccn2C)c(=O)[nH]1 [Q-1266] | 0.2
CCn1ccc2c(=O)[nH]c(-n3ncc(C(=O)N4CCN(CC(F)(F)F)CC4)c3C)nc21 [Q-1292] | 5
Cc1c(C(=O)N2CCC(C(F)(F)F)CC2)cnn1-c1nc2ccnn2c(=O)[nH]1 [Q-0447] | 0.4
CNC(=O)c1cnn(-c2nc(C)cc(=O)[nH]2)c1C [Q-0316] | 0.3
Cc1nc(-n2ccc(C(=O)N3CCC(C(F)(F)F)CC3)n2)cc(=O)[nH]1 [Q-0437, 2-methyl-6-{3-[4-(trifluoromethyl)piperidine-1-carbonyl]-1H-pyrazol-1-yl}-3,4-dihydropyrimidin-4-one] | 5
Cc1cc2nc(-n3ncc(C(=O)N4CCc5ccccc5C4)c3C)[nH]c(=O)c2s1 [Q-0407] | 1.7
Cc1c(C(=O)NC2CCCC2)cnn1-c1nc2ccccc2c(=O)[nH]1 [Q-0321] | 0.9
Cc1cc2c(=O)[nH]c(-n3ncc(C(=O)N4CCC(C(F)(F)F)CC4)c3C)nc2s1 [Q-0413] | 2.2
Cc1c(C(=O)N2CCC(S(=O)(=O)N3CCCC3)CC2)cnn1-c1nn2cccc2c(=O)[nH]1 [Q-2007] | 0.001
Cc1c(C(=O)N2CC[C@H]2c2ccc(F)nc2)cnn1-c1nn2cccc2c(=O)[nH]1 [Q-2055] | 0.007
Cc1c(C(=O)N2CC3CC(C2)N3CC(F)(F)F)cnn1-c1nc2c(c(=O)[nH]1)COC2 [Q-1483] | 0.03

— patent US9963462B2 (priority 2015, dated 2018)
